The text below walks through data of patent US6603046B1, “Bis-aromatic a,β-unsaturated ketones” (Lica Pharmaceuticals A/S, priority 1992, dated 2003).

≈ marks a conversion by molar mass, not a printed value.

Assay in all cases: organism not typed
One assay relates to L. wadsworthii. In kind it is cell-based.
In the next assay the test system is L. domoffli. Format: cell-based, L. dumoffii.
A further assay relates to L. bozemanii. In kind it is cell-based.
The next assay relates to L. longbeacheae. In kind it is cell-based.

For the compound `C=CC(C)(C)c1cc(/C=C/C(=O)c2ccc(O)cc2)c(OC)cc1O` [Licochalcone A, licochalcone A], the MIC came to 2 µg/mL (≈ 5.91 µM) in the assay on L. wadsworthii, 2 µg/mL (≈ 5.91 µM) against L. domoffli, 2 µg/mL (≈ 5.91 µM) in the assay on L. bozemanii and 1 µg/mL (≈ 2.96 µM) in the assay with L. longbeacheae.
